Tests used:
[1] = system: Saccharomyces cerevisiae; assay: Inhibition of Saccharomyces cerevisiae alpha-glucosidase at 200 ug/mL using p-nitrophenyl alpha-D-glucoside as substrate by colorimetric assay
[2] = Inhibition of Saccharomyces cerevisiae alpha-glucosidase using p-nitrophenyl alpha-D-glucoside as substrate by colorimetric assay

Row | SMILES | inhibition [1] | IC50 [2]
1 | O=c1cc(-c2ccccc2)oc2c(Cc3cccc(O)c3O)c(O)cc(O)c12 | 96.1% | 0.9 µM
2 | COc1cc(O)c2c(=O)cc(-c3ccccc3)oc2c1 [TECHTOCHRYSIN] | 90.9% | 158 µM
3 | O=C1C[C@@H](c2ccccc2)Oc2c(Cc3ccccc3O)c(O)c(Cc3ccccc3O)c(O)c21 [DICHAMANETIN] | 99.1% | 0.2 µM
4 | O=C(OCc1ccccc1O)c1ccccc1 | 97.5% | 4.3 µM
5 | CC(=O)O[C@H]1C(=O)C=COC=C1COC(=O)c1ccccc1 [GRANDIUVARONE A] | 98.2% | 3.1 µM
6 | CC(=O)O[C@@H]1C=COC=C(COC(=O)c2ccccc2)C1=O | 95.5% | 3.6 µM
7 | O=C1C[C@@H](c2ccccc2)Oc2cc(O)cc(O)c21 [PINOCEMBRIN] | 97.7% | 4.3 µM
8 | O=C1C[C@@H](c2ccccc2)Oc2cc(O)c(Cc3ccccc3O)c(O)c21 [ISOCHAMANETIN] | 93.2% | 2.9 µM
9 | CC(=O)OC/C=C\C=C(/CO)COC(=O)c1ccccc1 | 94% | 139 µM
10 | O=c1cc(-c2ccccc2)oc2c(Cc3cc(O)ccc3O)c(O)cc(O)c12 | 95.8% | 0.9 µM
11 | O=C(OC[C@@]1(O)C(=O)C=C[C@@H](OC(=O)c2ccccc2)[C@@H]1O)c1ccccc1 | 98.7% | 71.7 µM
12 | C[C@H]1O[C@H](O[C@H]2[C@H](O)[C@@H](O)[C@@H](O[C@H]3[C@H](O)[C@@H](O)C(O)O[C@@H]3CO)O[C@@H]2CO)[C@H](O)[C@@H](O)[C@@H]1N[C@H]1C=C(CO)[C@@H](O)[C@H](O)[C@H]1O (some centres undefined) [ACARBOSE] | – | 171 µM
13 | CC(=O)O[C@@H]1C=COC=C(CO)C1=O | 92.1% | 4.9 µM
14 | O=c1cc(-c2ccccc2)oc2cc(O)cc(O)c12 [CHRYSIN] | 95.4% | 4.9 µM
15 | CC(=O)OC/C=C\C=C(/COC(C)=O)COC(=O)c1ccccc1 | 99.1% | 40.7 µM

Source: ChEMBL document CHEMBL4422694, “α-Glucosidase Inhibitory Flavonoids and Oxepinones from the Leaf and Twig Extracts of Desmos cochinchinensis” (J Nat Prod, 2019)
